The record followed here is patent US20020071842A1, “Soluble CD1 compositions and uses thereof” (priority 2000, published 2002).

“Also recorded” adds a separate entry of the source.

Assay [1] relates to 24.8.A hybridoma. The experiment in a line: Plate-bound mCD1d fusion protein hybridoma stimulation assay (IL-2 ELISA). The format is cell-based, mouse. To be noted: for IL-2 response to mCD1d fusion protein pre-treated with purified or synthetic lipid: compared to untreated or buffer treated fusion protein; for IL-2 secretion: 24.8 A NKT hybridoma, plate-bound mCD1d-IgGFc2a fusion protein preincubated with lipid antigen. The gist of the method:
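Protein A plates were loaded with 400-600 ng/well mCD1d fusion protein, then given lipid antigen (40:1 molar ratio to fusion protein unless specified) in PBS pH 7.2 for 24-48 h at 37 °C. After washing, 1×10^5 hybridoma cells/well were added for 16-20 h at 37 °C. Secreted IL-2 measured by sandwich ELISA against a murine IL-2 standard curve.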
On the technique in general: In an ELISA, binding on a coated surface is turned into a signal by an enzyme label.

Assay [2] concerns α-GalCer reactive NKT cell hybridomas. Kind of assay: Plate-bound mCD1d fusion protein hybridoma stimulation assay, hybridoma panel. The format is cell-based, mouse. To be noted: some of the α-GalCer reactive NKT cell hybridomas. An excerpt:
Our observation that two NKT cell hybridomas, 24.8.A and 24.9.E, differed in their antigen reactivity, raised the possibility that NKT cells may have heterogeneous antigen specificities. To extend our analysis of NKT cells, and to compare antigen recognition by mCD1d-restricted T cells of the diverse TCR population, we tested 9 NKT and 8 diverse TCR mCD1d-restricted hybridomas for recognition of 14 purified and synthetic lipid antigens (see Tables 1 and 2). None of the hybridomas produced detectable IL-2 in response to a negative control protein, and only the 24.8.A hybridoma secreted detectable IL-2 in response to untreated mCD1d fusion protein (Table 2). Eight out of nine NKT cell hybridomas were potently stimulated by α-GalCer treated fusion protein, whereas none of the diverse TCR hybridomas reproducibly recognized this antigen (Table 2). […]
IL-2 secreted in the hybridoma stimulation assays was quantitated in a double antibody sandwich ELISA, by comparison to a standard curve of purified murine IL-2 (Pharmingen, San Diego, Calif.). […] IL-2 was detected by addition of a biotinylated rat anti-mouse IL-2 antibody, followed by addition of a streptavidin-alkaline phophatase conjugate, and a chromogenic substrate. The pg/ml of IL-2 present in the hybridoma supernatants was quantitated by linear regression of the IL-2 standard curve.

For `CCCCCCCCCCCCCCCCCCCCCCCCCC(=O)N[C@@H](CO[C@H]1O[C@H](CO)[C@H](O)[C@H](O)[C@H]1O)[C@H](O)[C@H](O)CCCCCCCCCCCCCC` [α-GalCer, α-galactosylceramide], the “IL-2 response to mCD1d fusion protein pre-treated with purified or synthetic lipid” value in assay [1] (24.8.A hybridoma) is “only a slightly enhanced response; also recorded: little IL-2 was secreted”. For the same molecule, in assay [1], the IL-2 secretion result was “+ (“+” indicates 50-250 pg/ml)”.
unglycosylated ceramide: the IL-2 secretion result in assay [1] was “+ (“+” indicates 50-250 pg/ml)”.
The same measure, in the same setting: as for β-galactosylceramide [β-GalCer], the entry is “+ (“+” indicates 50-250 pg/ml)”.
With phosphatidylinositol [PI], the “activity relative to synthetic α-GalCer” value in assay [2] is reported as 10-20%. Moreover, the “IL-2 response to mCD1d fusion protein pre-treated with purified or synthetic lipid” value in assay [1] (24.8.A hybridoma) is “marked increase of IL-2 production; also recorded: significantly enhanced IL-2 release”. Further, the “IL-2 produced in the presence of the 19G11 anti-mCD1d mAb” value in assay [1] (24.8.A hybridoma, representative experiment, 19G11 blocking antibody included) is given as “no detectable IL-2”. Also, the “mean IL-2 secreted” value in assay [1] (24.8.A hybridoma, representative experiment, mCD1d fusion protein pre-treated with antigen) is on record as 4,746 pg/ml. For the same molecule, the IL-2 secretion entry in assay [1] is “+++ (“+++” indicates greater than 1000 pg/ml IL-2)”. The “reduction of IL-2 secretion by phospholipase treatment of the antigen” value in assay [1] (PI treated with PLC or PLD prior to pre-incubation with the mCD1d fusion protein) was “approximately 70%”.
